Assay results from US20260034094A1, “COMPOSITIONS AND METHODS FOR INDUCING FERROPTOSIS” (Kojin Therapeutics, Inc., priority 2022, published 2026).
Several values for one entry are separate records, joined by “and”; a condition that tells them apart may be missing. Equal values may be shown once. Read-outs that look alike come from different tables or passages of the source.

What was measured:
human recombinant GCL = human recombinant GCL (Homo sapiens (Human), UniProt P48506); experiment: GCL enzyme profiling assay (ADP-Glo luminescence); format: biochemical
In short: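 IC50 fitted by four-parameter logistic to luminescent ADP formation (ADP-Glo). Reaction at room temperature in HEPES pH 7.5 with 30 mM MgCl2, 0.2% F-127, 1% DMSO; 5 nM GCL and 0.6 mM ATP preincubated 1 h before adding 1 mM glutamate plus 1.2 mM α-aminobutyrate for 2 h.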

RKN cells = experiment: RKN cell profiling assay (cell viability, CellTiter-Glo); format: cell-based; settings: read-out: Cell Killing EC50
In short: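 Viability read by CellTiter-Glo luminescence after 96 h compound exposure (0.5% DMSO final) of cells plated at 1,000/well in 10% FBS F-12 and allowed 24 h attachment. Four-parameter fits gave EC50; rescue arms used ferrostatin-1, 1.5 μM, present from seeding.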

[1] = human recombinant GCL, ADP-Glo, read-out: GCL IC50
[2] = human recombinant GCL 5 nM, 1 h preincubation with ATP, read-out: GCL IC50

Sequence of human recombinant GCL (P48506 whole entry): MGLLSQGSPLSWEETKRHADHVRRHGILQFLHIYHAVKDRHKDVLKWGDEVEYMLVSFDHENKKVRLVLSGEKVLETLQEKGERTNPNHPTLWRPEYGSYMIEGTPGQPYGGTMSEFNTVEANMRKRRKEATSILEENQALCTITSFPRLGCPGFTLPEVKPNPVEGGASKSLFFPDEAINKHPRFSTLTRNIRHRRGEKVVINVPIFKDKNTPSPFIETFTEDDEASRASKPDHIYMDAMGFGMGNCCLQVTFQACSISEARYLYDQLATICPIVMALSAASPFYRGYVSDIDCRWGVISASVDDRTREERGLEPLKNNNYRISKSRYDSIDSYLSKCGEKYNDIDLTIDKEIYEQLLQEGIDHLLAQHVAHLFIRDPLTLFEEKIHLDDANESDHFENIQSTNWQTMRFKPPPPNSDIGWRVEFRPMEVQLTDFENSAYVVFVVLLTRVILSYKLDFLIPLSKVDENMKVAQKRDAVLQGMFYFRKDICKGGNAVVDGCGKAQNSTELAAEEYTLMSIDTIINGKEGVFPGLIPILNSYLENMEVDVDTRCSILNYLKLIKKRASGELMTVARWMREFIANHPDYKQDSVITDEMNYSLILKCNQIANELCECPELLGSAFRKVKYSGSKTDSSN

Compound | IC50 (human recombinant GCL; [1]) [mM] | EC50 (RKN cells; cell viability) [µM] | IC50 (human recombinant GCL; [2]) | EC50 (RKN cells; 96 h, 96 h exposure) [µM] | IC50 (human recombinant GCL; human recombinant GCL 5 nM, 1 h preincubation with ATP, read-out: GCL IC50 (mM), individual values in parentheses)
N[C@@H](CCS(=O)(=O)CCC(O)(c1ccc(-c2ccc(Cl)cc2Cl)cn1)C(F)(F)F)C(=O)O (stereo partly drawn) [Compound 460, (2S)-2-amino-4-[3-[5-(2,4-dichlorophenyl)-2-pyridyl]-4,4,4-trifluoro-3-hydroxy-butyl]sulfonyl-butanoic acid] | ≤ 0.02 | < 1000 | – | – | –
CC(C)(C)CCS(=N)(=O)CC[C@H](N)C(=O)OC1CCCCC1 (some centres unmarked) [Compound 97] | – | – | > 2 mM | < 1000 | –
COC(=O)[C@@H](N)CCS(=N)(=O)CCCc1ccccc1 (stereo partly drawn) [Compound 70, (2S)-methyl 2-amino-4-(3-phenylpropylsulfonimidoyl)butanoate] | – | – | 0.02 to 2 mM | ≥ 1000 | –
N=S(=O)(CCC(c1ccc(-c2cc(F)ccc2Cl)cc1)C(F)(F)F)CC[C@H](N)C(=O)O (some centres unmarked) [Compound 238] | ≤ 0.02 | < 1000 | – | – | –
Cc1cnn(C(CCS(=N)(=O)CC[C@H](N)C(=O)O)C(F)(F)F)n1 (some centres unmarked) [Compound 406] | ≤ 0.02 | < 1000 | – | – | –
N=S(=O)(CC[C@H](N)C(=O)O)CCC(O)(c1ccc(-c2ccc3ccc(=O)oc3c2)cc1)C(F)(F)F (stereo partly drawn) [Compound 425, (2S)-2-amino-4-(4,4,4-trifluoro-3-hydroxy-3-(4-(2-oxo-2H-chromen-7-yl)phenyl)butylsulfonimidoyl)butanoic acid] | ≤ 0.02 | ≥ 1000 | – | – | –
CC(C)(CCS(=N)(=O)CC[C@H](N)C(=O)O)c1ccccc1F (some centres unmarked) [Compound 59] | – | – | ≤ 0.02 mM | < 1000 | –
N=S(=O)(CCCC1CC1)CC[C@H](N)C(=O)O (stereo partly drawn) [Compound 134, (2S)-2-amino-4-(3-cyclopropylpropylsulfonimidoyl)butanoic acid] | – | – | 0.02 to 2 mM | ≥ 1000 | –
N=S(=O)(CC[C@H](N)C(=O)O)CCC(O)(c1ccc(Cc2ccc(Cl)cc2Cl)cc1)C(F)(F)F (some centres unmarked) [Compound 457] | ≤ 0.02 | ≥ 1000 | – | – | –
CCCCS(=O)(CC[C@H](N)C(=O)OC)=NC(C)=O (stereo partly drawn) [Compound 197, (2S)-methyl 4-(N-acetylbutylsulfonimidoyl)-2-aminobutanoate] | – | – | > 2 mM | ≥ 1000 | –
N=S(=O)(CC[C@H](N)C(=O)O)CCC(O)(c1nc2ccccc2[nH]1)C(F)(F)F (some centres unmarked) [Compound 343] | 0.02 to 2 | < 1000 | – | – | –
CC(C)(C#N)CCS(=N)(=O)CC[C@H](N)C(=O)O (some centres unmarked) [Compound 171] | – | – | 0.02 to 2 mM | ≥ 1000 | –
Cc1ccc(C(F)(F)F)c(CCS(=N)(=O)CC[C@H](N)C(=O)O)c1 (some centres unmarked) [Compound 44] | – | – | ≤ 0.02 mM | ≥ 1000 | –
CC(C)(C)CC[S@@](=N)(=O)CC[C@H](N)C(=O)Nc1cccnc1 (single isomer, unassigned) [Compound 102] | – | – | > 2 mM | ≥ 1000 | –
N=S(=O)(CCC(n1ccc(-c2ccccn2)n1)C(F)(F)F)CC[C@H](N)C(=O)O (some centres unmarked) [Compound 415] | 0.02 to 2 | ≥ 1000 | – | – | –
N=S(=O)(CC[C@H](N)C(=O)O)CCC1(C(=O)N2CCC2)CCC1 (some centres unmarked) [Compound 196] | – | – | 0.02 to 2 mM | ≥ 1000 | –
N=S(=O)(CC[C@H](N)C(=O)O)CCC(O)(c1ccccn1)C(F)(F)F (stereo partly drawn) [Compound 350, (2S)-2-amino-4-(4,4,4-trifluoro-3-hydroxy-3-(pyridin-2-yl)butylsulfonimidoyl)butanoic acid] | ≤ 0.02 | < 1000 | – | – | –
N=S(=O)(CCC(c1ccc2ccccc2c1)C(F)(F)F)CC[C@H](N)C(=O)O (some centres unmarked) [Compound 310] | ≤ 0.02 | < 1000 | – | – | –
N=S(=O)(CC[C@H](N)C(=O)O)CCC(O)(c1ccc(-n2cccn2)cc1)C(F)(F)F (stereo partly drawn) [Compound 426, (2S)-4-(3-(4-(1H-pyrazol-1-yl)phenyl)-4,4,4-trifluoro-3-hydroxybutylsulfonimidoyl)-2-aminobutanoic acid] | 0.02 to 2 | ≥ 1000 | – | – | –
CC(C)(C)CCS(=N)(=O)CC[C@H](N)C(=O)Nc1ccccn1 (some centres unmarked) [Compound 128] | – | – | 0.02 to 2 mM | < 1000 | –
CC(C)(C)CCS(=N)(=O)CC[C@H](N)C(=O)Nc1cc[nH]n1 (some centres unmarked) [Compound 123] | – | – | > 2 mM and 0.02 to 2 mM | ≥ 1000 | > 10 mM and 1.16 mM
N=S(=O)(CCCC(F)(F)F)CC[C@H](N)c1ncno1 (stereo partly drawn) [Compound 204, (1S)-1-(1,2,4-oxadiazol-5-yl)-3-(4,4,4-trifluorobutylsulfonimidoyl)propan-1-amine] | – | – | > 2 mM | ≥ 1000 | –
N=S(=O)(CC[C@H](N)C(=O)O)CCC(O)(C1CCN(c2ccc(Cl)cc2Cl)CC1)C(F)(F)F (some centres unmarked) [Compound 379] | ≤ 0.02 | < 1000 | – | – | –
N=S(=O)(CC[C@H](N)C(=O)O)CCC(O)(c1nsc2ccccc12)C(F)(F)F (some centres unmarked) [Compound 375] | ≤ 0.02 | < 1000 | – | – | –
CCCCOC(=O)[C@@H](N)CCS(=N)(=O)CCC(O)(c1ccc(-c2ccc(Cl)cc2Cl)cc1)C(F)(F)F (some centres unmarked) [Compound 485] | 0.02 to 2 | < 1000 | – | – | –
CCCCOC(=O)[C@@H](N)CCS(=N)(=O)CCC(C)(C)c1ccccc1 (some centres unmarked) [Compound 87] | – | – | 0.02 to 2 mM | < 1000 | –
